{"source": "patent US10703765B2", "about": "(priority 2014, dated 2020)", "note": "pKi: −log10 of the molar value. Where a name gives a salt, the structure may show the parent alone.", "data": [{"target": "human σ1 receptor (Homo sapiens, UniProt Q99720)", "sequence (Q99720 whole entry)": "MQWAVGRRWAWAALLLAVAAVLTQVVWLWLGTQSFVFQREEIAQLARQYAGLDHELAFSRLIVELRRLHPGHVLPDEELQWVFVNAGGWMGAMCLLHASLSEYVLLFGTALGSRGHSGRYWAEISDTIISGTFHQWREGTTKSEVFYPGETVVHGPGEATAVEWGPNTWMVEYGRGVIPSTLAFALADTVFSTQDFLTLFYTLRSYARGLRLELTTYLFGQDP", "test": "biochemical", "type": "binding", "set-up": "μ and σ1 dual binding: key to the marks not given beside the values", "conditions": "not given", "values": [{"smiles": "Cl.O=C1COC2(CCN(CCc3ccccc3)CC2)CN1CCc1ccccn1", "note": "[Example 169, 9-phenethyl-4-(2-(pyridin-2-yl)ethyl)-1-oxa-4,9-diazaspiro[5.5]undecan-3-one hydrochloride]", "μ and σ1 dual binding": "++"}, {"smiles": "CC1OC2(CCN(CCc3ccccc3O)CC2)CN(c2ccccc2)C1=O", "note": "(stereo not drawn) [Example 295, 9-(2-hydroxyphenethyl)-2-methyl-4-phenyl-1-oxa-4,9-diazaspiro[5.5]undecan-3-one]", "pKi": "> 7.00"}, {"smiles": "C[C@H]1OC2(CCN(C[C@H](O)c3ccccc3)CC2)CN(c2ccccc2)C1=O", "note": "[Example 151a, (R)-9-((R)-2-hydroxy-2-phenylethyl)-2-methyl-4-phenyl-1-oxa-4,9-diazaspiro[5.5]undecan-3-one]", "pKi": "> 6.30"}, {"smiles": "CC1OC2(CCN(CCc3ccccc3)CC2)CN(CC2CCOCC2)C1=O.Cl", "note": "(stereo not drawn) [Example 163, 2-methyl-9-phenethyl-4-((tetrahydro-2H-pyran-4-yl)methyl)-1-oxa-4,9-diazaspiro[5.5]undecan-3-one hydrochloride]", "μ and σ1 dual binding": "++"}, {"smiles": "O=C1C(CCCO)OC2(CCN(CCc3ccccc3)CC2)CN1c1ccccc1F", "note": "(stereo not drawn) [Example 302, 4-(2-fluorophenyl)-2-(3-hydroxypropyl)-9-phenethyl-1-oxa-4,9-diazaspiro[5.5]undecan-3-one]", "pKi": "> 6.30"}, {"smiles": "Nc1nc(CCN2CCC3(CC2)CN(c2ccccc2)C(=O)C2(CC2)O3)cs1", "note": "[Example 307, 8-[2-(2-aminothiazol-4-yl)ethyl]-12-phenyl-4-oxa-8,12-diazadispiro[2.1.5.3]tridecan-13-one dihydrochloride]", "pKi": "> 6.30"}, {"smiles": "CC1OC2(CCN(CC3CCOCC3)CC2)CN(c2ccccc2)C1=O.Cl", "note": "(stereo not drawn) [Example 59, 2-methyl-4-phenyl-9-((tetrahydro-2H-pyran-4-yl)methyl)-1-oxa-4,9-diazaspiro[5.5]undecan-3-one hydrchloride]", "μ and σ1 dual binding": "++"}, {"smiles": "O=C1COC2(CCN(CCc3ccccc3)CC2)CN1Cc1ccc(C(F)(F)F)cn1", "note": "[Example 177, 9-phenethyl-4-((5-(trifluoromethyl)pyridin-2-yl)methyl)-1-oxa-4,9-diazaspiro[5.5]undecan-3-one hydrochloride]", "pKi": "> 7.00"}, {"smiles": "CC1OC2(CCN(CCc3ccccc3)CC2)CN(c2cccc(C(=O)N(C)C)c2)C1=O.Cl", "note": "(stereo not drawn) [Example 271, N,N-dimethyl-3-(2-methyl-3-oxo-9-phenethyl-1-oxa-4,9-diazaspiro[5.5]undecan-4-yl)benzamide hydrochloride]", "μ and σ1 dual binding": "++"}, {"smiles": "CC(=O)Nc1ccc(CCN2CCC3(CC2)CN(c2ccccc2)C(=O)C(C)O3)cc1.Cl", "note": "(stereo not drawn) [Example 241, N-(4-(2-(2-methyl-3-oxo-4-phenyl-1-oxa-4,9-diazaspiro[5.5]undecan-9-yl)ethyl)phenyl)acetamide hydrochloride]", "μ and σ1 dual binding": "++"}, {"smiles": "COCCC=C1OC2(CCN(CCc3ccccc3)CC2)CN(c2ccccc2F)C1=O", "note": "[Example 142, 4-(2-fluorophenyl)-2-(3-methoxypropylidene)-9-phenethyl-1-oxa-4,9-diazaspiro[5.5]undecan-3-one]", "pKi": "> 6.30"}, {"smiles": "C[C@@H]1OC2(CCN(CCc3ccccc3F)CC2)CN(c2cnccc2C(F)(F)F)C1=O.Cl", "note": "[Example 127a, (S)-9-(2-fluorophenethyl)-2-methyl-4-(4-(trifluoromethyl)pyridin-3-yl)-1-oxa-4,9-diazaspiro[5.5]undecan-3-one hydrochloride]", "μ and σ1 dual binding": "++"}, {"smiles": "O=C1C(=CC2CCOCC2)OC2(CCN(CCc3ccccc3)CC2)CN1c1ccccc1F", "note": "[Example 80, 4-(2-fluorophenyl)-9-phenethyl-2-((tetrahydro-2H-pyran-4-yl)methylene)-1-oxa-4,9-diazaspiro[5.5]undecan-3-one]", "pKi": "> 6.30"}, {"smiles": "CC1OC2(CCN(CCc3ncccc3C(F)(F)F)CC2)CN(c2ccccc2)C1=O", "note": "(stereo not drawn) [Example 33, 2-methyl-4-phenyl-9-(2-(3-(trifluoromethyl)pyridin-2-yl)ethyl)-1-oxa-4,9-diazaspiro[5.5]undecan-3-one hydrochloride]", "pKi": "> 6.30"}, {"smiles": "CC1OC2(CCN(CCc3ncccc3Cl)CC2)CN(c2ccccc2)C1=O", "note": "(stereo not drawn) [Example 37, 9-(2-(3-chloropyridin-2-yl)ethyl)-2-methyl-4-phenyl-1-oxa-4,9-diazaspiro[5.5]undecan-3-one hydrochloride]", "pKi": "> 6.30"}, {"smiles": "CC1OC2(CCN(CCc3ccccc3)CC2)CN(c2ccncc2)C1=O.Cl", "note": "(stereo not drawn) [Example 205, 2-methyl-9-phenethyl-4-(pyridin-4-yl)-1-oxa-4,9-diazaspiro[5.5]undecan-3-one hydrochloride]", "μ and σ1 dual binding": "++"}, {"smiles": "Cl.O=C1COC2(CCN(CCc3ccccc3)CC2)CN1CCc1ccncc1", "note": "[Example 178, 9-phenethyl-4-(2-(pyridin-4-yl)ethyl)-1-oxa-4,9-diazaspiro[5.5]undecan-3-one hydrochloride]", "μ and σ1 dual binding": "++"}]}, {"target": "human σ1 receptor (Homo sapiens, UniProt Q99720)", "test": "biochemical", "type": "binding", "set-up": "μ and σ1 dual binding: key to the marks not given beside the values", "conditions": "combined class from Ki-σ1 (human σ1 receptor, A1) and Ki-μ (human μ-opioid receptor, A2) radioligand binding", "values": [{"smiles": "O=C1COC2(CCN(Cc3ccccc3)C2)CN1c1ccccc1", "note": "(stereo not drawn) [Example 7, 2-benzyl-9-phenyl-6-oxa-2,9-diazaspiro[4.5]decan-8-one]", "μ and σ1 dual binding": "++"}, {"smiles": "O=C1COC2(CCN(Cc3ccccc3)CC2)CN1c1ccccc1O", "note": "[Example 285, 9-benzyl-4-(2-hydroxyphenyl)-1-oxa-4,9-diazaspiro[5.5]undecan-3-one]", "μ and σ1 dual binding": "++"}]}, {"target": "human σ1 receptor (Homo sapiens, UniProt Q99720)", "test": "biochemical", "type": "binding", "set-up": "μ and σ1 dual binding: key to the marks not given beside the values", "conditions": "read-out: μ and σ1 dual binding", "values": [{"smiles": "O=C(CN1CCC2(CC1)CN(Cc1ccc(C(F)(F)F)cn1)C(=O)CO2)c1ccccc1", "note": "[Example 99, 9-(2-oxo-2-phenylethyl)-4-((5-(trifluoromethyl)pyridin-2-yl)methyl)-1-oxa-4,9-diazaspiro[5.5]undecan-3-one]", "pKi": "< 6.30"}, {"smiles": "CC1OC2(CCN(CC(=O)N3CCOCC3)CC2)CN(Cc2ccc(C(F)(F)F)cn2)C1=O", "note": "(stereo not drawn) [Example 124, 2-methyl-9-(2-morpholino-2-oxoethyl)-4-((5-(trifluoromethyl)pyridin-2-yl)methyl)-1-oxa-4,9-diazaspiro[5.5]undecan-3-one hydrochloride]", "pKi": "< 6.30"}, {"smiles": "O=C(O)CC1OC2(CCN(CCc3ccccc3)CC2)CN(c2ccccc2)C1=O", "note": "(stereo not drawn) [Example 270, 2-(3-oxo-9-phenethyl-4-phenyl-1-oxa-4,9-diazaspiro[5.5]undecan-2-yl)acetic acid hydrochloride]", "pKi": "< 6.30"}, {"smiles": "COc1ccccc1CCN1CCC2(CC1)CN(Cc1ccccc1)CCO2", "note": "[Example 87, 4-benzyl-9-(2-methoxyphenethyl)-1-oxa-4,9-diazaspiro[5.5]undecane dihydrochloride]", "pKi": "< 6.30"}, {"smiles": "CC1OC2(CCN(CC(=O)N3CCCCC3)CC2)CN(Cc2ccc(C(F)(F)F)cn2)C1=O", "note": "(stereo not drawn) [Example 128, 2-methyl-9-(2-oxo-2-(piperidin-1-yl)ethyl)-4-((5-(trifluoromethyl)pyridin-2-yl)methyl)-1-oxa-4,9-diazaspiro[5.5]undecan-3-one hydrochloride]", "pKi": "< 6.30"}, {"smiles": "CC1OC2(CCN(CCc3ccccc3)CC2)CN(c2ccccc2Cl)C1=O", "note": "(stereo not drawn) [Example 193, 4-(2-chlorophenyl)-2-methyl-9-phenethyl-1-oxa-4,9-diazaspiro[5.5]undecan-3-one hydrochloride]", "pKi": "> 7.00"}, {"smiles": "O=C1COC2(CCN(CCc3ccccc3)CC2)CN1Cc1ccccn1", "note": "[Example 86, 9-phenethyl-4-(pyridin-2-ylmethyl)-1-oxa-4,9-diazaspiro[5.5]undecan-3-one hydrochloride]", "pKi": "> 7.00"}, {"smiles": "CC1OC2(CCN(CCN3CCCC3=O)CC2)CN(c2ccccc2)C1=O", "note": "(stereo not drawn) [Example 146, 2-methyl-9-(2-(2-oxopyrrolidin-1-yl)ethyl)-4-phenyl-1-oxa-4,9-diazaspiro[5.5]undecan-3-one]", "pKi": "< 6.30"}, {"smiles": "C[C@@H]1OC2(CCN(CCc3ccccc3)CC2)CN(c2ccccc2)C1=O", "note": "[Example 10b, (S)-2-methyl-9-phenethyl-4-phenyl-1-oxa-4,9-diazaspiro[5.5]undecan-3-one]", "pKi": "> 7.00"}, {"smiles": "O=C1COC2(CCN(CCc3ccccc3)CC2)CN1Cc1ccc(F)cn1", "note": "[Example 176, 4-((5-fluoropyridin-2-yl)methyl)-9-phenethyl-1-oxa-4,9-diazaspiro[5.5]undecan-3-one hydrochloride]", "pKi": "> 6.30"}, {"smiles": "COc1ccc(CN2CC3(CCN(CCc4ccccc4)CC3)OC3(CC3)C2=O)cc1", "note": "[Example 109, 12-(4-methoxybenzyl)-8-phenethyl-4-oxa-8,12-diazadispiro[2.1.5.3]tridecan-13-one hydrochloride]", "pKi": "> 7.00"}, {"smiles": "CC1OC2(CCN(CCc3ccccc3)CC2)CN(Cc2ccc(F)cc2)C1=O", "note": "(stereo not drawn) [Example 158, 4-(4-fluorobenzyl)-2-methyl-9-phenethyl-1-oxa-4,9-diazaspiro[5.5]undecan-3-one hydrochloride]", "pKi": "> 7.00"}, {"smiles": "Oc1cccc(N2CCOC3(CCN(Cc4ccccc4)CC3)C2)c1", "note": "[Example 318, 3-(9-benzyl-1-oxa-4,9-diazaspiro[5.5]undecan-4-yl)phenol]", "pKi": "> 6.30"}, {"smiles": "O=C1COC2(CCN(CCc3ccccc3)CC2)CN1c1ccccc1", "note": "[Example 5, 9-phenethyl-4-phenyl-1-oxa-4,9-diazaspiro[5.5]undecan-3-one]", "pKi": "> 6.30"}, {"smiles": "CC1OC2(CCN(CCc3ccc(N)cn3)CC2)CN(c2ccccc2)C1=O", "note": "(stereo not drawn) [Example 236, 9-(2-(5-aminopyridin-2-yl)ethyl)-2-methyl-4-phenyl-1-oxa-4,9-diazaspiro[5.5]undecan-3-one]", "pKi": "< 6.30"}, {"smiles": "CC1OC2(CCN(CCc3ccc(Cl)nc3)CC2)CN(c2ccccc2)C1=O", "note": "(stereo not drawn) [Example 113, 9-(2-(6-chloropyridin-3-yl)ethyl)-2-methyl-4-phenyl-1-oxa-4,9-diazaspiro[5.5]undecan-3-one]", "pKi": "< 6.30"}, {"smiles": "Nc1cccc(CN2CC3(CCN(CCc4ccccc4)CC3)OCC2=O)n1", "note": "[Example 104, 4-((6-aminopyridin-2-yl)methyl)-9-phenethyl-1-oxa-4,9-diazaspiro[5.5]undecan-3-one]", "pKi": "< 6.30"}, {"smiles": "CC1OC2(CCN(CCc3ccccc3)CC2)CN(Cc2cncs2)C1=O", "note": "(stereo not drawn) [Example 161, 2-methyl-9-phenethyl-4-(thiazol-5-ylmethyl)-1-oxa-4,9-diazaspiro[5.5]undecan-3-one hydrochloride]", "pKi": "> 6.30"}, {"smiles": "Nc1cccc(CN2CC3(CCN(CCc4ccccc4)CC3)OCC2=O)c1", "note": "[Example 233, 4-(3-aminobenzyl)-9-phenethyl-1-oxa-4,9-diazaspiro[5.5]undecan-3-one hydrochloride]", "pKi": "> 6.30"}, {"smiles": "O=C(CN1CCC2(CC1)CN(c1ccccc1)C(=O)C1(CC1)O2)c1ccccc1", "note": "[Example 97, 8-(2-oxo-2-phenylethyl)-12-phenyl-4-oxa-8,12-diazadispiro[2.1.5.3]tridecan-13-one]", "pKi": "< 6.30"}]}]}
